Assay results published in patent publication US10266549B2, “ULK1 inhibitors and methods using same” (SALK INSTITUTE FOR BIOLOGICAL STUDIES, priority 2014, dated 2019).

What follows are compounds tested against ULK1 (Homo sapiens (Human), UniProt O75385) (assay: ULK1 inhibition assay (Table 1)). Details: * = tested as a mixture of regioisomers.
Type: biochemical

Sequence of ULK1 (O75385 whole entry, species assumed): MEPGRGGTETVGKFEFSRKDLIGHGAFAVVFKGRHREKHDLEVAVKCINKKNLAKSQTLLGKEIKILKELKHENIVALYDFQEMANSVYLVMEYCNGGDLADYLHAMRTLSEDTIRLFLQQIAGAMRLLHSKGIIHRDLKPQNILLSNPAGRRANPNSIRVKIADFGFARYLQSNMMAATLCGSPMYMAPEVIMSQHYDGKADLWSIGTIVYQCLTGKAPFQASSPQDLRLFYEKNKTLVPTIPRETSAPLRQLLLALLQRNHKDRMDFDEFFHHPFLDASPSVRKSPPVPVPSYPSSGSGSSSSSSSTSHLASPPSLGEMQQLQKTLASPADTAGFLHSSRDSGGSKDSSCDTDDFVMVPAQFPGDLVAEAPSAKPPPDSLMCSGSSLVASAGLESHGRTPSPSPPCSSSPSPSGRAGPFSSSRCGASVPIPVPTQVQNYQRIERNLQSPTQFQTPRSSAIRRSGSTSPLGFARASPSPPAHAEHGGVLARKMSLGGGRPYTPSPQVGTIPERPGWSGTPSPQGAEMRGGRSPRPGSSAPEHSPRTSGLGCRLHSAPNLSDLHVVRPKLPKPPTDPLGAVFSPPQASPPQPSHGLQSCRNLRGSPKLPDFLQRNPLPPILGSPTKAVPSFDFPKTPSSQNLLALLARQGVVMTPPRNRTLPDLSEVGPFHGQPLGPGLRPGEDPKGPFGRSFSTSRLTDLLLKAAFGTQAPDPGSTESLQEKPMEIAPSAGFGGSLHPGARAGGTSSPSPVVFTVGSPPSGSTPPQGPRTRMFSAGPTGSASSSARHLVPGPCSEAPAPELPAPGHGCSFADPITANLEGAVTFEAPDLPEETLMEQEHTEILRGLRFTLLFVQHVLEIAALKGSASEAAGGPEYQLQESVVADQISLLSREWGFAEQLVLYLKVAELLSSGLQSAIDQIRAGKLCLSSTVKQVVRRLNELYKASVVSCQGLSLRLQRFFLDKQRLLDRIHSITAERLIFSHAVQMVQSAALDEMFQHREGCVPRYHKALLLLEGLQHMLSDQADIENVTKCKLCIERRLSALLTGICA

COc1ccc(Nc2nc(Nc3cc(OC)c(OC)c(OC)c3)ncc2C(F)(F)F)cn1 [compound 37, N^4-(6-Methoxypyridin-3-yl)-5-(trifluoromethyl)-N^2-(3,4,5-trimethoxyphenyl)pyrimidine-2,4-diamine] and CCCCOc1nc(Nc2cc(OC)c(OC)c(OC)c2)ncc1Br [compound 173, 5-bromo-4-butoxy-N-(3,4,5-trimethoxyphenyl)pyrimidin-2-amine] cannot be ordered by IC50: less than 200 nM for the first, less than 200 nM for the second.

Compared with CNC(=O)c1ccccc1Sc1nc(Nc2cc(OC)ccc2C)ncc1C(F)(F)F [compound 117, 2-((2-((5-methoxy-2-methylphenyl)amino)-5-(trifluoromethyl)pyrimidin-4-yl)thio)-N-methylbenzamide], CNC(=O)c1ccccc1Nc1nc(Nc2cc(OC)ccc2C)ncc1C(F)(F)F [compound 42, 2-(2-(5-Methoxy-2-methylphenylamino)-5-(trifluoromethyl)pyrimidin-4-ylamino)-N-methylbenzamide] is lower in IC50: greater than 2000 nM for the first, less than 200 nM for the second. The second is the more potent here.

Brc1cnc(Nc2ccc3[nH]ccc3c2)nc1Nc1ccccn1 [compound 154, 5-bromo-N^2-(1H-indol-5-yl)-N^4-(pyridin-2-yl)pyrimidine-2,4-diamine] and COc1ccc(Nc2nc(Nc3ccc4[nH]ccc4c3)ncc2Br)cn1 [compound 30, 5-Bromo-N^2-(1H-indol-5-yl)-N^4-(6-methoxypyridin-3-yl) pyrimidine-2,4-diamine] cannot be ordered by IC50: less than 200 nM for the first, less than 200 nM for the second.

CNC(=O)c1ccccc1Oc1nc(Nc2cc(Br)ccc2C)ncc1Br [compound 112, 2-((5-bromo-2-((5-bromo-2-methylphenyl)amino)pyrimidin-4-yl)oxy)-N-methylbenzamide] and CNC(=O)c1ccccc1Oc1nc(Nc2cc(C)ccc2C)ncc1C(F)(F)F [compound 104, 2-((2-((2,5-dimethylphenyl)amino)-5-(trifluoromethyl)pyrimidin-4-yl)oxy)-N-methylbenzamide] cannot be ordered by IC50: greater than 2000 nM for the first, greater than 2000 nM for the second.

O=C1CCc2cc(Nc3ncc(Br)c(NC4CC4)n3)ccc2N1 [compound 159, 6-((5-bromo-4-(cyclopropylamino)pyrimidin-2-yl)amino)-3,4-dihydroquinolin-2(1H)-one] and O=C1CCc2cc(Nc3ncc(C(F)(F)F)c(NC4CCC4)n3)ccc2N1 [150a, 6-((4-(cyclobutylamino)-5-(trifluoromethyl)pyrimidin-2-yl)amino)-3,4-dihydroquinolin-2(1H)-one] cannot be ordered by IC50: less than 200 nM for the first, less than 200 nM for the second.

COc1ccc(OC)c(Nc2ncc(C(F)(F)F)c(O)n2)c1 [109b, 2-((2,5-dimethoxyphenyl)amino)-5-(trifluoromethyl)pyrimidin-4-ol] and COc1cccc(Nc2ncc(C(F)(F)F)c(O)n2)c1OC [115b, 2-((2,3-dimethoxyphenyl)amino)-5-(trifluoromethyl)pyrimidin-4-ol] cannot be ordered by IC50: greater than 2000 nM for the first, greater than 2000 nM for the second.

CSc1ccccc1Nc1ncc(C(F)(F)F)c(Nc2ccccc2SC)n1 [116b, N^2,N^4-bis(2-(methylthio)phenyl)-5-(trifluoromethyl)pyrimidine-2,4-diamine] and CNC(=O)c1ccccc1Oc1nc(Nc2cccc(F)c2F)ncc1C(F)(F)F [compound 113, 2-((2-((2,3-difluorophenyl)amino)-5-(trifluoromethyl)pyrimidin-4-yl)oxy)-N-methylbenzamide] cannot be ordered by IC50: greater than 2000 nM for the first, greater than 2000 nM for the second.

COc1ccc(C)c(Nc2ncc(Cl)c(Nc3ccc(OC)nc3)n2)c1 [compound 34, 5-Chloro-N^2-(5-methoxy-2-methylphenyl)-N^4-(6-methoxypyridin-3-yl)pyrimidine-2,4-diamine] and COc1ccc(C)c(Nc2ncc(Cl)c(Nc3cccc(CC#N)c3)n2)c1 [compound 54, 2-(3-(5-Chloro-2-(5-methoxy-2-methylphenylamino)pyrimidin-4-ylamino)phenyl)acetonitrile] cannot be ordered by IC50: greater than 2000 nM for the first, greater than 2000 nM for the second.

FC(F)(F)c1cnc(NC2CCC2)nc1Nc1cnc2[nH]ccc2c1 [161b, N^2-cyclobutyl-N^4-(1H-pyrrolo[2,3-b]pyridin-5-yl)-5-(trifluoromethyl)pyrimidine-2,4-diamine] and FC(F)(F)c1cnc(Nc2cnc3[nH]ccc3c2)nc1NC1CCC1 [161a, N^4-cyclobutyl-N^2-(1H-pyrrolo[2,3-b]pyridin-5-yl)-5-(trifluoromethyl)pyrimidine-2,4-diamine] cannot be ordered by IC50: less than 200 nM for the first, less than 200 nM for the second.

Going from Fc1c(Nc2nc(Nc3ccc4c(c3)OCO4)ncc2C(F)(F)F)cccc1C(F)(F)F [141b, N^2-(benzo[d][1,3]dioxol-5-yl)-N^4-(2-fluoro-3-(trifluoromethyl)phenyl)-5-(trifluoromethyl)pyrimidine-2,4-diamine] to FC(F)(F)c1cnc(Nc2ccc3c(c2)OCO3)nc1NC1Cc2ccccc2C1 [163b, N^2-(benzo [d] [1,3]dioxol-5-yl)-N^4-(2,3-dihydro-1H-inden-2-yl)-5-(trifluoromethyl)pyrimidine-2,4-diamine], the IC50 rises from less than 200 nM to greater than 2000 nM.

CNC(=O)c1ccccc1Nc1nc(Nc2ccc3c(c2)CC(=O)N3)ncc1Cl [compound 21, 2-(5-Chloro-2-(2-oxoindolin-5-ylamino)pyrimidin-4-ylamino)-N-methylbenzamide] and CNC(=O)c1ccccc1Nc1nc(Nc2ccc3c(c2)CCC(=O)N3)ncc1Br [compound 20, 2-((5-Bromo-2-((2-oxo-1,2,3,4-tetrahydroquinolin-6-yl)amino)pyrimidin-4-yl)amino)-N-methylbenzamide] cannot be ordered by IC50: less than 200 nM for the first, less than 200 nM for the second.

O=C1CCc2cc(Nc3ncc(C(F)(F)F)c(OC4CCC4)n3)ccc2N1 [compound 175, 6-((4-cyclobutoxy-5-(trifluoromethyl)pyrimidin-2-yl)amino)-3,4-dihydroquinolin-2(1H)-one] and O=C1CCc2cc(Nc3nc(NC4CCC4)ncc3C(F)(F)F)ccc2N1 [150b, 6-((2-(cyclobutylamino)-5-(trifluoromethyl)pyrimidin-4-yl)amino)-3,4-dihydroquinolin-2(1H)-one] cannot be ordered by IC50: less than 200 nM for the first, less than 200 nM for the second.

COc1cccc(Nc2nc(Nc3ccc4c(c3)CCC(=O)N4)ncc2Cl)c1 [143a, 6-((5-chloro-4-((3-methoxyphenyl)amino)pyrimidin-2-yl)amino)-3,4-dihydroquinolin-2(1H)-one] and COc1ccc(Nc2nc(Nc3ccc4c(c3)CCC(=O)N4)ncc2Br)cn1 [compound 156, 6-((5-bromo-4-((6-methoxypyridin-3-yl)amino)pyrimidin-2-yl)amino)-3,4-dihydroquinolin-2(1H)-one] cannot be ordered by IC50: less than 200 nM for the first, less than 200 nM for the second.

CC(=O)Nc1ccc(Nc2nc(Nc3ccc4c(c3)CCC(=O)N4)ncc2C(F)(F)F)cc1 [compound 132, N-(4-((2-((2-oxo-1,2,3,4-tetrahydroquinolin-6-yl)amino)-5-(trifluoromethyl)pyrimidin-4-yl)amino)phenyl)acetamide] and O=C1CCc2cc(Nc3ncc(C(F)(F)F)c(Nc4ccccc4)n3)ccc2N1 [compound 48, 6-(4-(Phenylamino)-5-(trifluoromethyl)pyrimidin-2-ylamino)-3,4-dihydroquinolin-2(1H)-one] cannot be ordered by IC50: less than 200 nM for the first, less than 200 nM for the second.

First: Clc1cnc(Nc2ccccc2)nc1Nc1ccccc1 [compound 114, 5-chloro-N^2,N^4-diphenylpyrimidine-2,4-diamine]
Second: CNC(=O)c1ccccc1Nc1nc(Nc2ccccc2Cl)ncc1Cl [compound 74, 2-(5-Chloro-2-(2-chlorophenylamino)pyrimidin-4-ylamino)-N-methylbenzamide]
The IC50 of the first is higher: greater than 2000 nM for the first, 200 to 2000 nM for the second.

Going from COc1cc(N2CCOCC2)ccc1Nc1ncc(Br)c(Nc2ccccc2S(=O)(=O)N(C)C)n1 [compound 80, 2-(5-Bromo-2-(2-methoxy-4-morpholinophenylamino)pyrimidin-4-ylamino)-N—N-dimethylbenzenesulfonamide] to COc1ccc(Nc2nc(Nc3ccc(N4CCOCC4)cc3OC)ncc2Cl)cn1 [compound 27, 5-Chloro-N^2-(2-methoxy-4-morpholinophenyl)-N^4-(6-methoxypyridin-3-yl)pyrimidine-2,4-diamine], the IC50 rises from less than 200 nM to greater than 2000 nM. The first is the more potent here.

First: CNC(=O)c1ccccc1Oc1nc(Nc2ccc3c(c2)CCC(=O)N3)ncc1C(F)(F)F [compound 110, N-methyl-2-((2-((2-oxo-1,2,3,4-tetrahydroquinolin-6-yl)amino)-5-(trifluoromethyl)pyrimidin-4-yl)oxy)benzamide]
Second: O=C1CCc2cc(Nc3ncc(C(F)(F)F)c(OCc4ccccc4)n3)ccc2N1 [compound 81, 6-(4-(Benzyloxy)-5-(trifluoromethyl)pyrimidin-2-ylamino)-3,4-dihydroquinolin-2(1H)-one]
The IC50 of the first is higher: 200 to 2000 nM for the first, less than 200 nM for the second.

FC(F)(F)c1cnc(Nc2ccc3c(c2)OCCO3)nc1NC1CC1 [158a, N^4-cyclopropyl-N^2-(2,3-dihydrobenzo[b][1,4]dioxin-6-yl)-5-(trifluoromethyl)pyrimidine-2,4-diamine] and Brc1cnc(Nc2cnc3[nH]ccc3c2)nc1NC1CC1 [compound 174, 5-bromo-N4-cyclopropyl-N2-(1H-pyrrolo[2,3-b]pyridin-5-yl)pyrimidine-2,4-diamine] cannot be ordered by IC50: less than 200 nM for the first, less than 200 nM for the second.

Compared with CNC(=O)c1ccccc1Oc1nc(Nc2cccc(OC)c2OC)ncc1C(F)(F)F [115a, 2-((2-((2,3-dimethoxyphenyl)amino)-5-(trifluoromethyl)pyrimidin-4-yl)oxy)-N-methylbenzamide], CNC(=O)c1ccccc1Nc1nc(Nc2cccc(OC)c2)ncc1Cl [compound 44, 2-(5-Chloro-2-(3-methoxyphenylamino)pyrimidin-4-ylamino)-N-methylbenzamide] is lower in IC50: greater than 2000 nM for the first, less than 200 nM for the second.

CS(=O)(=O)c1cccc(CNc2nc(Nc3ccc4c(c3)CCC(=O)N4)ncc2F)c1 [compound 56, 6-((5-Fluoro-4-((3-(methylsulfonyl)benzyl)amino)pyrimidin-2-yl)amino)-3,4-dihydroquinolin-2(1H)-one] and O=C1CCc2cc(Nc3nc(OC4Cc5ccccc5C4)ncc3C(F)(F)F)ccc2N1 [180b, 6-((2-((2,3-dihydro-1H-inden-2-yl)oxy)-5-(trifluoromethyl)pyrimidin-4-yl)amino)-3,4-dihydroquinolin-2(1H)-one] cannot be ordered by IC50: greater than 2000 nM for the first, greater than 2000 nM for the second.

Nc1ncc(C(F)(F)F)c(Nc2cnc3[nH]ccc3c2)n1 [181b, N4-(1H-pyrrolo[2,3-b]pyridin-5-yl)-5-(trifluoromethyl)pyrimidine-2,4-diamine] was tested, and the IC50 was 200 to 2000 nM.
